According to patent publication US12285393B2, “Roles of modulators of intersectin-Cdc42 signaling in Alzheimer's disease” (priority 2017, dated 2025):
pIC50: −log10 of the molar value.

Legend:
Rac1 = target: T1, Rac1 (Homo sapiens, UniProt P63000); experiment: Rho-GEF IC50 assay (GEF/DH domain-mediated mant-GTP binding); type: biochemical
T1 construct: purchased Cytoskeleton Inc
Description: (§1) Rho-GEF IC50 Assay: Rho-GEF assay (Cytoskeleton Inc., Denver, Colorado, United States of America) was conducted per manufacturer's instructions (λex=360 nm, λem=460 nm). Briefly, a solution (50 μL) of purified Rho GTPase (1 μM) and mant-GTP (1.5 μM) with or without compound (0.001-500 μM) was prepared and the absorbance monitored for 10-30 min to obtain the background/baseline. The addition of purified GEF/DH domain (0.08-0.2 μM) was carried out simultaneously and the absorbance was recorded for 30-45 min. The linear slope following the addition of the GEF was calculated and expressed as percentage of the control and plotted on an IC50 curve.

RhoA = target: T2, RhoA (Homo sapiens, UniProt P61586); experiment: as above; type: biochemical
T2 construct: purchased Cytoskeleton Inc
Description: as §1

Swiss 3T3 cells = experiment: Immunofluorescence, cell morphology and bradykinin-mediated activation; type: cell-based
Description: Immunofluorescence: Serum-starved Swiss 3T3 cells were pretreated with compound for 2 h before the addition of bradykinin (100 ng/mL) for 20 min. Cells were fixed in 4% paraformaldehyde for 15 min at RT and stored in PBS. Fixed cells were treated with 0.5% Triton for 30 min at RT, 100 mM Glycine 30 min at RT, and 10% BSA for 30 min at 37° C. Primary antibody for GM130 (1:1000, BD Biosciences, Franklin Lakes, New Jersey, United States of America) was used to probe for 1 h at RT followed by CY3-conjugated secondary antibody (1:1000) for 1 h at RT in the dark. Actin was stained with fluorescein-conjugated phalloidin (1:300). Hoechst (1:2500) was used to stain the nuclei. Coverslips were mounted onto slides using antifade medium from Life Technologies (Carlsbad, California, United States of America). Images were taken with a Zeiss Axiovert S100 microscope (Carl Zeiss; Thornwood, New York, United States of America).

[1] = Solubility profile by optical density; type: physicochemical; details: for Ratio (optical density solution/solvent alone) / optical density of solution: RT, 10 minutes
Excerpt: ZCL278, ZCL279, and ZCL367 were all tested for solubility in the 5 FDA approved solvents to be used in humans. […] Results are shown below in Tables 2-4. Ratio refers to the optical density of the solution comprising the modulator compound/the optical density of the carder/solvent alone.

C57BL/6 mice = experiment: Toxicity experiment, I.P. injection; type: in vivo; details: 0.4 mg/g or 0.8 mg/g body weight I.P.; 1 hour or 2 weeks
Description: (§2) ZCL 278 Toxicity Experiment: Individual C57BL/6 mice of 4-6 months of age from Jackson Laboratory (Bar Harbor, Maine, United States of America) were submitted to ZCL278 treatment for 5 minutes, 30 minutes, 2 hours and 24 hours. The dosage of ZCL278 for each mouse was 0.8 mg/g body weight delivered via intraperitoneal (I.P.) injection of a 15 mg/ml solution of ZCL278 was dissolved in the sesame oil (10% DMSO).
as §2, with “279” for “278”, “ZCL279” for “ZCL278”, “0.6” for “0.8”
ZCL367 Toxicity Experiment: Individual C57BL/6 mice of 4-6 months of age from Jackson Laboratory (Bar Harbor, Maine, United States of America) were submitted to ZCL367 treatment for 1 hour or 2 weeks. The dosage of ZCL367 for each time period was 0.4 mg/g body weight or 0.8 mg/g body weight, delivered via I.P. injection. […] Mice were sacrificed after end of 1 hour or 2 weeks.

mice = experiment: Long-term survival after one injection; type: in vivo
Description: Long-term Survival. Groups of 10 mice were treated with one injection of ZCL278 (up to 0.8 mg/g), ZCL279 (up to 0.6 mg/g), or ZCL367 (up to 1.6 mg/g) to examine potential lethal dosage (the maximal dosage tested when no mice died). […] Durations longer than 3 months have not been tested. As a reference, working dosage for the behavioral assessment described below used 20 ug/g for injection, […] than the highest dosage of 0.8 mg/g tested in the long-term survival experiment.

Cdc42 [2] = target: T3, Cdc42 (Homo sapiens, UniProt P60953); experiment: Rho-GEF IC50 assay (GEF/DH domain-mediated mant-GTP binding); type: biochemical; design: purchased Cytoskeleton Inc; details: read-out: IC50, GEF/DH domain-mediated mant-GTP binding/Cdc42 activation
Description: as §1

Cdc42 [3] = target: T3, Cdc42; experiment: mant-GTP binding to Cdc42 with or without GEF/DH domain; type: biochemical; design: purchased Cytoskeleton Inc; details: 5-500 μM
Description: (§3) Cdc42 (1 μM) was incubated with mant-GTP (1.5 μM) and varying concentrations of ZCL278, ZCL279, or ZCL367 (5-500 μM). Fluorescent readings were taken every minute for 10 m to acquire the baseline. The GEF/DH domain (0.08-0.2 μM) was added followed by readings taken every minute for another 30 m. The linear phase was calculated from within the time period of 12-22 m. Cdc42 (1 μM) was incubated with mant-GTP (1.5 μM) and varying concentrations of ZCL278, ZCL279, or ZCL367 (5-500 μM). Fluorescent readings were taken every minute for 30 m to monitor the binding of mant-GTP in the absence of GEF/DH domain.

Cdc42 [4] = target: T3, Cdc42; experiment: Cdc42-GEF-assay, additional compound screening; type: biochemical; design: purchased Cytoskeleton Inc; details: percentages of ZCL367 normalized to batch; less than 100% = more potent inhibitor
Description: as §1, §3
Cdc42-GEF-assays were conducted on additional screening compounds in batches of 9 compounds per batch as described above in Example 2 using ZCL278 and ZCL367 as standards. Screening compounds were taken from the Specs Chemistry Database of 197,000 compounds for small molecule or the National Cancer Institute Compound Library. […] These compounds promote Cdc42-mantGTP binding without GEF. It is possible that these compounds can inhibit Cdc42-mantGTP binding with GEF. […] These compounds appear to have activity like ZCL279. […] However, upon the addition of GEF, the compounds appear to facilitate the binding of mantGTP to Cdc42 (high assay slope, relative to ZCL278)

[5] = Polyethylene Glycol300 (PEG-300), 30%

T3 sequence (P60953 whole entry, the tested form may be a part): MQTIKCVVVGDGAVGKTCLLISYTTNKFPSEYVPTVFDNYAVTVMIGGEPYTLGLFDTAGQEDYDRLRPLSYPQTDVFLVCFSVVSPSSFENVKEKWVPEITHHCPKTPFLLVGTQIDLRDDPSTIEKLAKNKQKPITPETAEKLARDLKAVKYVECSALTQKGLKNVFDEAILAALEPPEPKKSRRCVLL
T2 sequence (P61586 whole entry): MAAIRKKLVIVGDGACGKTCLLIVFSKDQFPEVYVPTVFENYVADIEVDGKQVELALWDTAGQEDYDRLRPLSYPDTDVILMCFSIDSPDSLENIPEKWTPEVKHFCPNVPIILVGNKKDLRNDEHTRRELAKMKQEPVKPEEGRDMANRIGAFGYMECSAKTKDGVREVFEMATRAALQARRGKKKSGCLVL

O=C(N/N=C/c1ccccc1O)c1cc(O)cc(O)c1 [ZCL367, (E)-3,5-dihydroxy-N′-(2-hydroxybenzylidene)benzohydrazide]
pIC50 (Rac1): 6.72 | pIC50 (RhoA): 4.53 | bradykinin-mediated activation (Swiss 3T3 cells; Swiss 3T3 cells, bradykinin 100 ng/mL): inhibit bradykinin-mediated activation | changes to cell morphology (Swiss 3T3 cells; after 4 h of treatment, more drastic after six hours): no effects on cell morphology | Ratio (optical density solution/solvent alone) ([1]; 1,2-Propanediol, 40%): 2.667 | optical density of solution ([1]; 1,2-Propanediol, 40%): 0.104 | Ratio (optical density solution/solvent alone) ([1]; Dimethyl Sulfoxide (DMSO)): 1.048 | optical density of solution ([1]; Dimethyl Sulfoxide (DMSO)): 0.044 | Ratio (optical density solution/solvent alone) ([1]; Pluronic F-68, 10%): 2.026 | optical density of solution ([1]; Pluronic F-68, 10%): 0.079 | Ratio (optical density solution/solvent alone) [1, 5]: 2.333 | optical density of solution [1, 5]: 0.091 | Ratio (optical density solution/solvent alone) ([1]; Sesame Oil): 2.636 | optical density of solution ([1]; Sesame Oil): 0.116 | Ratio (optical density solution/solvent alone) ([1]; Sterile Water): 5.211 | optical density of solution ([1]; Sterile Water): 0.198 | Ratio (optical density solution/solvent alone) ([1]; Tween-80, 0.4%): 3.579 | optical density of solution ([1]; Tween-80, 0.4%): 0.136 | Ratio (optical density solution/solvent alone) ([1]; dPBS): 2.974 | optical density of solution ([1]; dPBS): 0.113 | solubility ([1]; in DM19): completely soluble | gross anatomic toxicity (liver, kidney, spleen) (C57BL/6 mice): no gross anatomic toxicity | Lethal Dosage (mice; mouse, in vivo): 0.8 mg/g | Longest Dosing Duration (mice; mouse, in vivo): 2 months | deaths in long-term survival (mice; one injection, 1.6 mg/g, in 1 month): one (day 20) out of four mice died | pIC50 (Cdc42 [2]): 7.01 | effect on Cdc42 (mant-GTP binding) (Cdc42 [3]; in the absence of GEF domain): has no effect | effect on Cdc42 (mant-GTP binding) (Cdc42 [3]; in the presence of GEF domain): acts as an inhibitor | % ZCL367 (inhibitor activity) (Cdc42 [4]): 100%
